Measurements reported in patent US20250134952A1, “METHODS FOR IMPROVING THE EFFICACY OF HDAC INHIBITOR THERAPY AND PREDICTING THE RESPONSE TO TREATMENT WITH HDAC INHIBITOR” (INSTITUT NATIONAL DE LA SANTÉ ET DE LA RECHERCHE MÉDICALE, priority 2021, published 2025).

Columns and labels:
[1] = tested on: breast cancer cell lines; assay: Preliminary experiments: lowest dose of TSA inducing cellular responses; assay type: cell-based, human
Method: To dissect the role of Tau in controlling chromatin we sought to perturb chromatin structure by inhibiting histone deacetylation with the pan-histone deacetylase-inhibitor trichostatin A (TSA). In our preliminary experiments we found the lowest dose of TSA inducing cellular responses was 100 nM and we used this concentration in all the following experiments. First, we evaluated cell death, apoptosis and cell cycle progression by flow cytometric analyses in the two cell lines (as above we just illustrate our results with MCF7 cells in the main paper). We tested the effect of TSA in the presence or absence of short hairpin RNAs (Tau and Control). After 48 hours there was a strong increase in the number of dead cells from less 2% to >50% in the Tau-knockdown cells and a lesser increase to 38% in sh-ctrl cells (FIG. 1). In agreement, apoptosis was measured at 48% and 30% respectively (FIG. 1C).

[2] = tested on: GAPDH promoter in MCF7shctrl cells; assay: ChIP-qPCR of H3 acetylation and Tau occupancy on the GAPDH promoter; assay type: cell-based, human; conditions: 100 nM TSA, GAPDH transcription start site
Description: (A) Chromatin immunoprecipitations-qPCR analysis of H3 acetylation and Tau occupancy on the GAPDH promoter in MCF7shctrl cells in the indicated conditions. MCF7shctrl cells were subjected to cross-linking by 1% formaldehyde. Chromatin fragments were then immunoprecipitated using antibodies (Ab) against acetylated H3 (ac-H3) or Tau and analyzed by quantitative PCR for the presence of the GAPDH promoter. (B) Functional organization of the p21 promoter. (C) ChIP-qPCR analysis of H3 acetylation in MCF7shctrl or shTau cells or (D) Tau occupancy in MCF7shctrl cells on the p21 promoter. […] Chromatin fragments were then immunoprecipitated using antibodies (Ab) against acetylated H3 or Tau and analyzed by quantitative PCR for the presence of the GAL4 UAS promoter. Quantification of enrichment is represented as fold-enrichment relative to IgG. […]
To test this hypothesis, we next performed chromatin immunoprecipitations assays. […] Quantitative PCR analysis of input or immunoprecipitated DNA using acetylated H3 and Tau antibodies was carried out to detect different promoter regions. […] No change in the level of acetylated H3, nor Tau binding, were detected after TSA treatment (FIG. 3A). […] In addition, Tau was detected at the level of these regions in MCF7shctrl cells (≈4-fold enrichment) in absence or presence of TSA treatment (FIG. 3D).

In the case of CC(/C=C/C(=O)NO)=C\[C@@H](C)C(=O)c1ccc(N(C)C)cc1 [TSA, 2,4-Heptadienamide, 7-[4-(dimethylamino)phenyl]-N-hydroxy-4,6-dimethyl-7-oxo-, (2E,4E,6R)-], the “lowest dose of TSA inducing cellular responses” value [1] is reported as 100 nM and the “level of acetylated H3 and Tau binding after TSA treatment” value [2] is reported as “No change”.
